Target: T1, ChRmine (Rhodomonas lens, UniProt Z9FJ57BNO3)
T1 construct: residues 1-309 of R. lens cation channelrhodopsin 1; C-terminal PreScission site-linker-sfGFP-7xHis, cleaved; expressed in Sf9; no N-terminal tag, Met1 removed, Ala2 acetylated; residues 2-285 modeled; homotrimer in MSP1E3D1 nanodiscs
T1 sequence (Z9FJ57BNO3 2-309): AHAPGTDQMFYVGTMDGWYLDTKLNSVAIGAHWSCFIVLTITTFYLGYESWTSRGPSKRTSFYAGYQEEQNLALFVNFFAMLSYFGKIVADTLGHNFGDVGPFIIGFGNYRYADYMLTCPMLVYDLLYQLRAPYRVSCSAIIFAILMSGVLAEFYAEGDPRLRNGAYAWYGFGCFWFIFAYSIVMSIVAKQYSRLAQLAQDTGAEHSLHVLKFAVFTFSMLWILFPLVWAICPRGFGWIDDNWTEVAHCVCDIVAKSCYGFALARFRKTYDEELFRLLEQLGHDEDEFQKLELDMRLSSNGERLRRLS
Assay: cryo-EM structure, […] Å, lipid nanodisc
Assay type: binding
Conditions: covalent; Schiff base to K257; MSP1E3D1 nanodisc with DOPE/POPS/POPC, pH 7.5; 5 µM all-trans retinal added to expression culture; small and large nanodisc forms

Structure (SMILES): CC1=C(/C=C/C(C)=C/C=C/C(C)=C/C=O)C(C)(C)CCC1 [all-trans retinal]
- cryo-EM structure, 2.7 Å, lipid nanodisc: (K257) on TM7 is covalently linked to a molecule of all-trans retinal through a Schiff base

Source: PMC9385719, “Cryo-EM structures of the channelrhodopsin ChRmine in lipid nanodiscs” (Nature Communications, 2022)
